Experimental data as given in ChEMBL document CHEMBL1629585, “Nationwide survey of CTX-M-type extended-spectrum beta-lactamases among Klebsiella pneumoniae isolates in Slovenian hospitals” (2009).
Values after ≈ are worked out from the molar mass of the structure shown.

Legend:
Klebsiella pneumoniae [1] = assay: Antibacterial activity against Klebsiella pneumoniae C expressing CTX-M group 1 beta-lactamase by Etest method in presence of clavulanic acid; assay type: functional
Escherichia coli [2] = assay: Antibacterial activity against Escherichia coli TrC A expressing Klebsiella pneumoniae A blaCTX-M beta-lactamase by Etest method; assay type: functional
Escherichia coli [3] = assay: Antibacterial activity against rifampicin resistant Escherichia coli J53-2 by Etest method
Klebsiella pneumoniae [4] = assay: Antibacterial activity against Klebsiella pneumoniae expressing CTX-M group 1 beta-lactamase by Etest method in presence of clavulanic acid; assay type: functional
Klebsiella pneumoniae [5] = assay: Antibacterial activity against Klebsiella pneumoniae D expressing CTX-M group 1 beta-lactamase by Etest method; assay type: functional
Escherichia coli [6] = assay: Antibacterial activity against Escherichia coli TrC B expressing Klebsiella pneumoniae B blaCTX-M beta-lactamase by Etest method; assay type: functional
Klebsiella pneumoniae [7] = assay: Antibacterial activity against Klebsiella pneumoniae A expressing CTX-M group 1 beta-lactamase by Etest method; assay type: functional
Klebsiella pneumoniae [8] = assay: Antibacterial activity against Klebsiella pneumoniae B expressing CTX-M group 1 beta-lactamase by Etest method in presence of clavulanic acid; assay type: functional
Escherichia coli [9] = assay: Antibacterial activity against Escherichia coli TrC A expressing Klebsiella pneumoniae A blaCTX-M beta-lactamase by Etest method in presence of clavulanic acid
Klebsiella pneumoniae [10] = assay: Antibacterial activity against Klebsiella pneumoniae C expressing CTX-M group 1 beta-lactamase by Etest method; assay type: functional
Escherichia coli [11] = assay: Antibacterial activity against Escherichia coli TrC C expressing Klebsiella pneumoniae C blaCTX-M beta-lactamase by Etest method in presence of clavulanic acid
Klebsiella pneumoniae [12] = assay: Antibacterial activity against Klebsiella pneumoniae D expressing CTX-M group 1 beta-lactamase by Etest method in presence of clavulanic acid; assay type: functional
Klebsiella pneumoniae [13] = assay: Antibacterial activity against Klebsiella pneumoniae B expressing CTX-M group 1 beta-lactamase by Etest method; assay type: functional
Klebsiella pneumoniae [14] = assay: Antibacterial activity against Klebsiella pneumoniae expressing CTX-M group 1 beta-lactamase by Etest method; assay type: functional
Escherichia coli [15] = assay: Antibacterial activity against rifampicin resistant Escherichia coli J53-2 by Etest method in presence of clavulanic acid; assay type: functional
Klebsiella pneumoniae [16] = assay: Antibacterial activity against Klebsiella pneumoniae A expressing CTX-M group 1 beta-lactamase by Etest method in presence of clavulanic acid; assay type: functional
Escherichia coli [17] = assay: Antibacterial activity against Escherichia coli TrC B expressing Klebsiella pneumoniae B blaCTX-M beta-lactamase by Etest method in presence of clavulanic acid
Escherichia coli [18] = assay: Antibacterial activity against Escherichia coli TrC C expressing Klebsiella pneumoniae C blaCTX-M beta-lactamase by Etest method; assay type: functional
Escherichia coli [19] = assay: Antibacterial activity against Escherichia coli TrC A expressing Klebsiella pneumoniae A blaCTX-M beta-lactamase by Etest method in presence of Tazobactam; assay type: functional
Klebsiella pneumoniae [20] = assay: Antibacterial activity against Klebsiella pneumoniae B expressing CTX-M group 1 beta-lactamase by Etest method in presence of Tazobactam; assay type: functional
Escherichia coli [21] = assay: Antibacterial activity against rifampicin resistant Escherichia coli J53-2 by Etest method in presence of Tazobactam; assay type: functional
Escherichia coli [22] = assay: Antibacterial activity against Escherichia coli TrC C expressing Klebsiella pneumoniae C blaCTX-M beta-lactamase by Etest method in presence of Tazobactam; assay type: functional
Klebsiella pneumoniae [23] = assay: Antibacterial activity against Klebsiella pneumoniae A expressing CTX-M group 1 beta-lactamase by Etest method in presence of Tazobactam; assay type: functional
Escherichia coli [24] = assay: Antibacterial activity against Escherichia coli TrC B expressing Klebsiella pneumoniae B blaCTX-M beta-lactamase by Etest method in presence of Tazobactam; assay type: functional
Klebsiella pneumoniae [25] = assay: Antibacterial activity against Klebsiella pneumoniae C expressing CTX-M group 1 beta-lactamase by Etest method in presence of Tazobactam; assay type: functional

For `CO/N=C(\C(=O)N[C@@H]1C(=O)N2C(C(=O)O)=C(COC(C)=O)CS[C@H]12)c1csc(N)n1` [CEFOTAXIME], the MIC (Klebsiella pneumoniae [1]) was 0.047 µg/mL, the MIC50 (Klebsiella pneumoniae [1]) was 0.125 µg/mL and the MIC90 (Klebsiella pneumoniae [1]) was > 1 µg/mL. It also gave an MIC (Escherichia coli [2]) of 256 µg/mL (≈ 562 µM), an MIC (Escherichia coli [3]) of 0.25 µg/mL (≈ 0.549 µM) and an MIC (Klebsiella pneumoniae [4]) of 0.032 µg/mL. For the same molecule, the MIC50 (Klebsiella pneumoniae [4]) was 0.047 µg/mL, the MIC90 (Klebsiella pneumoniae [4]) was > 1 µg/mL and the MIC (Klebsiella pneumoniae [5]) was > 256 µg/mL. For the same molecule, the MIC50 (Klebsiella pneumoniae [5]) was > 256 µg/mL, the MIC90 (Klebsiella pneumoniae [5]) was > 256 µg/mL and the MIC (Escherichia coli [6]) was 256 µg/mL (≈ 562 µM). For the same molecule, the MIC (Klebsiella pneumoniae [7]) was 64 µg/mL (≈ 141 µM), the MIC50 (Klebsiella pneumoniae [7]) was > 256 µg/mL and the MIC90 (Klebsiella pneumoniae [7]) was > 256 µg/mL. For the same molecule, the MIC (Klebsiella pneumoniae [8]) was 0.047 µg/mL, the MIC50 (Klebsiella pneumoniae [8]) was 0.094 µg/mL and the MIC90 (Klebsiella pneumoniae [8]) was 0.094 µg/mL. The MIC (Escherichia coli [9]) was 0.125 µg/mL, the MIC (Klebsiella pneumoniae [10]) was > 256 µg/mL and the MIC50 (Klebsiella pneumoniae [10]) was > 256 µg/mL. For the same molecule, the MIC90 (Klebsiella pneumoniae [10]) was > 256 µg/mL, the MIC (Escherichia coli [11]) was 0.125 µg/mL and the MIC (Klebsiella pneumoniae [12]) was 0.047 µg/mL. It also gave an MIC50 (Klebsiella pneumoniae [12]) of 0.047 µg/mL, an MIC90 (Klebsiella pneumoniae [12]) of 0.125 µg/mL and an MIC (Klebsiella pneumoniae [13]) of 96 µg/mL (≈ 211 µM). For the same molecule, the MIC50 (Klebsiella pneumoniae [13]) was > 256 µg/mL, the MIC90 (Klebsiella pneumoniae [13]) was > 256 µg/mL and the MIC (Klebsiella pneumoniae [14]) was 48 µg/mL (≈ 105 µM). For the same molecule, the MIC50 (Klebsiella pneumoniae [14]) was > 256 µg/mL, the MIC90 (Klebsiella pneumoniae [14]) was > 256 µg/mL and the MIC (Escherichia coli [15]) was ≤ 0.06 µg/mL. It also gave an MIC (Klebsiella pneumoniae [16]) of 0.023 µg/mL, an MIC50 (Klebsiella pneumoniae [16]) of 0.023 µg/mL and an MIC90 (Klebsiella pneumoniae [16]) of 0.19 µg/mL. For the same molecule, the MIC (Escherichia coli [17]) was 0.125 µg/mL and the MIC (Escherichia coli [18]) was 256 µg/mL (≈ 562 µM).
In the case of `O=C(O)c1cn(C2CC2)c2cc(N3CCNCC3)c(F)cc2c1=O` [CIPROFLOXACIN], the MIC (Escherichia coli [2]) is reported as ≤ 0.125 µg/mL, the MIC (Escherichia coli [3]) is reported as ≤ 0.125 µg/mL and the MIC50 (Klebsiella pneumoniae [5]) is reported as > 32 µg/mL. The MIC90 (Klebsiella pneumoniae [5]) was > 32 µg/mL, the MIC (Escherichia coli [6]) was ≤ 0.125 µg/mL and the MIC (Klebsiella pneumoniae [7]) was 0.38 µg/mL (≈ 1.15 µM). The MIC50 (Klebsiella pneumoniae [7]) was 1 µg/mL (≈ 3.02 µM), the MIC90 (Klebsiella pneumoniae [7]) was 6 µg/mL (≈ 18.1 µM) and the MIC50 (Klebsiella pneumoniae [10]) was > 32 µg/mL. The MIC90 (Klebsiella pneumoniae [10]) was > 32 µg/mL, the MIC50 (Klebsiella pneumoniae [13]) was > 32 µg/mL and the MIC90 (Klebsiella pneumoniae [13]) was > 32 µg/mL. The MIC (Klebsiella pneumoniae [14]) was 0.032 µg/mL (≈ 0.0966 µM), the MIC50 (Klebsiella pneumoniae [14]) was 16 µg/mL (≈ 48.3 µM) and the MIC90 (Klebsiella pneumoniae [14]) was > 32 µg/mL. For the same molecule, the MIC (Escherichia coli [18]) was ≤ 0.125 µg/mL.
`C[C@]1(Cn2ccnn2)[C@H](C(=O)O)N2C(=O)C[C@H]2S1(=O)=O` [TAZOBACTAM] was tested, and the MIC (Escherichia coli [19]) was 4 µg/mL, the MIC (Klebsiella pneumoniae [20]) was > 64 µg/mL and the MIC (Escherichia coli [21]) was 4 µg/mL. The MIC (Escherichia coli [22]) was 16 µg/mL, the MIC (Klebsiella pneumoniae [23]) was 4 µg/mL and the MIC (Escherichia coli [24]) was 16 µg/mL. The MIC (Klebsiella pneumoniae [25]) was > 64 µg/mL.
For `CO/N=C(\C(=O)N[C@@H]1C(=O)N2C(C(=O)[O-])=C(C[N+]3(C)CCCC3)CS[C@H]12)c1csc(N)n1`, the MIC (Klebsiella pneumoniae [5]) was 32 µg/mL (≈ 66.6 µM), the MIC90 (Klebsiella pneumoniae [5]) was > 256 µg/mL and the MIC (Klebsiella pneumoniae [13]) was 16 µg/mL (≈ 33.3 µM). It also gave an MIC50 (Klebsiella pneumoniae [13]) of 16 µg/mL (≈ 33.3 µM) and an MIC90 (Klebsiella pneumoniae [13]) of 48 µg/mL (≈ 99.9 µM).
With `CO[C@@]1(NC(=O)Cc2cccs2)C(=O)N2C(C(=O)O)=C(COC(N)=O)CS[C@@H]21` [CEFOXITIN] the MIC (Escherichia coli [2]) was 16 µg/mL (≈ 37.4 µM), the MIC (Escherichia coli [3]) was 8 µg/mL (≈ 18.7 µM) and the MIC (Klebsiella pneumoniae [5]) was 3 µg/mL (≈ 7.02 µM). For the same molecule, the MIC50 (Klebsiella pneumoniae [5]) was 4 µg/mL (≈ 9.36 µM), the MIC90 (Klebsiella pneumoniae [5]) was 16 µg/mL (≈ 37.4 µM) and the MIC (Escherichia coli [6]) was 8 µg/mL (≈ 18.7 µM). The MIC (Klebsiella pneumoniae [7]) was 3 µg/mL (≈ 7.02 µM), the MIC50 (Klebsiella pneumoniae [7]) was 4 µg/mL (≈ 9.36 µM) and the MIC90 (Klebsiella pneumoniae [7]) was 24 µg/mL (≈ 56.1 µM). It also gave an MIC (Klebsiella pneumoniae [10]) of 8 µg/mL (≈ 18.7 µM), an MIC50 (Klebsiella pneumoniae [10]) of 12 µg/mL (≈ 28.1 µM) and an MIC90 (Klebsiella pneumoniae [10]) of 48 µg/mL (≈ 112 µM). The MIC (Klebsiella pneumoniae [13]) was 8 µg/mL (≈ 18.7 µM), the MIC50 (Klebsiella pneumoniae [13]) was 8 µg/mL (≈ 18.7 µM) and the MIC90 (Klebsiella pneumoniae [13]) was 16 µg/mL (≈ 37.4 µM). For the same molecule, the MIC (Klebsiella pneumoniae [14]) was 1.5 µg/mL (≈ 3.51 µM), the MIC50 (Klebsiella pneumoniae [14]) was 3 µg/mL (≈ 7.02 µM) and the MIC90 (Klebsiella pneumoniae [14]) was 48 µg/mL (≈ 112 µM). It also gave an MIC (Escherichia coli [18]) of 8 µg/mL (≈ 18.7 µM).
`NC[C@H]1O[C@H](O[C@H]2[C@H](O)[C@@H](O[C@H]3O[C@H](CO)[C@@H](O)[C@H](N)[C@H]3O)[C@H](N)C[C@@H]2N)[C@H](N)C[C@@H]1O` [TOBRAMYCIN] gave an MIC (Escherichia coli [2]) of 32 µg/mL (≈ 68.4 µM), an MIC (Escherichia coli [3]) of 1 µg/mL (≈ 2.14 µM) and an MIC (Escherichia coli [6]) of 32 µg/mL (≈ 68.4 µM). It also gave an MIC (Klebsiella pneumoniae [7]) of 32 µg/mL (≈ 68.4 µM), an MIC (Klebsiella pneumoniae [10]) of 32 µg/mL (≈ 68.4 µM) and an MIC (Klebsiella pneumoniae [13]) of 32 µg/mL (≈ 68.4 µM). For the same molecule, the MIC (Escherichia coli [18]) was 16 µg/mL (≈ 34.2 µM).
